Data set [1] in a line: off-target signal loss in HeLa-CEM21 co-culture – HeLa F-luc CTL cells, cherry-picked, counter-screen for HIV-1 Env fusion inhibitor project, dose response (AID 652040).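 Note: potency for signal decrease marking cytotoxic or nonspecific inhibition.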 The format is functional, cell-based. (Counterscreens check selectivity or assay interference.)
A short description of data set [2]: THP-1 cell cytotoxicity, dose response, cytotoxicity control for Vif-APOBEC3G degradation inhibitor project, THP-1 cells (AID 1117359). The format is functional. Conditions: Human immunodeficiency virus 1, THP-1.
Data set [3] in a line: CEM21 lymphoblast cell cytotoxicity, dose response, cytotoxicity control for viral fusion inhibitor project, CellTiter-Glo luminescence, cherry-picked (AID 652042).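 Note: potency for signal decrease meaning cytotoxicity.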 Type of data set: functional, cell-based.
Data set [4] is described as follows: ZM109 Env clade C HIV-1 fusion inhibitors, dose response, HeLa effector, CEM target cells, luciferase, cherry-pick (AID 652058). The format is functional, cell-based.
The nature of data set [5]: inhibitors of HIV Env-driven cell fusion, dose response, cherry-pick (AID 652057). Type of data set: functional, cell-based.
Another data set addresses Protein Tat (Human immunodeficiency virus type 1 group M subtype B (isolate HXB2)(HIV-1), UniProt P04608). Type of data set: functional.
Data set [6] addresses T1, Microphthalmia-associated transcription factor (Homo sapiens, UniProt O75030).
T1 sequence (O75030 whole entry): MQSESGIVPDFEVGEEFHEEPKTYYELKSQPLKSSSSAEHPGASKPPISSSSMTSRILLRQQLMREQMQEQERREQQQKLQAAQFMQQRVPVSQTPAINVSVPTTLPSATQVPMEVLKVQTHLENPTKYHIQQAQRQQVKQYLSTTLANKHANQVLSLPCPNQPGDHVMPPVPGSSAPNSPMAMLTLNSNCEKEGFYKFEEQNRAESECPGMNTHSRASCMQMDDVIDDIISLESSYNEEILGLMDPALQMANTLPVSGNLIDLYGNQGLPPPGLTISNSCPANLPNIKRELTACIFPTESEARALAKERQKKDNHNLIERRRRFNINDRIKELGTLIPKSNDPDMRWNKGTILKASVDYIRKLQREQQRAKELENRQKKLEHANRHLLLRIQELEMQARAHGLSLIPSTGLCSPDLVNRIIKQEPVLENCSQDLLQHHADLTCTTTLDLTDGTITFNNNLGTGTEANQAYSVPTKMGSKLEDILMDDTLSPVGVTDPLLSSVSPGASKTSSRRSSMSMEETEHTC
Put plainly: TRPM1 promoter luciferase signal decrease, dose response, MITF inhibitor project, cell-based, SK-MEL-5, cherry-picked, set 3 (AID 493073).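 Note: SK-MEL-5 melanoma cells with luciferase driven by the MITF target TRPM1 promoter.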 Type of data set: functional.

In data set [7] the target is T2, Heat shock factor protein 1 (Mus musculus, UniProt P38532).
T2 sequence (P38532 whole entry): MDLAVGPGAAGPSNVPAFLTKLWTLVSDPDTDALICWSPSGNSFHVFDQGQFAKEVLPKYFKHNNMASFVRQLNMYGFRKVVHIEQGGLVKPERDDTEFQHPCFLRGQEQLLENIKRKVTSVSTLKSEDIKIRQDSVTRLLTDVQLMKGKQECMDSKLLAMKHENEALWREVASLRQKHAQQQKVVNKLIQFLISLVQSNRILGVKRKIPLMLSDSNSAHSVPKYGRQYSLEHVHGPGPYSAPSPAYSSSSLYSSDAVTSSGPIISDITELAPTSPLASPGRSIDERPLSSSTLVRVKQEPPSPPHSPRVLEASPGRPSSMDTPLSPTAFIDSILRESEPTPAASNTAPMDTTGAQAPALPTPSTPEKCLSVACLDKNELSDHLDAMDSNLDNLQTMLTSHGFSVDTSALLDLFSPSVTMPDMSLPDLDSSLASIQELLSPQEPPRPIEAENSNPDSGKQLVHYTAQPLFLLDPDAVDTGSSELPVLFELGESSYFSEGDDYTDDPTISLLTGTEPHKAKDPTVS
Put plainly: inhibition of MG132-induced HSE-luciferase signal, confirmation, cell-based, NIH3T3, luminescence, dose retest (AID 2382).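 Note: NIH3T3 fibroblasts with HSF1-driven luciferase reporter stressed by proteasome inhibitor MG132; luminescence from HSF1-driven luciferase expression after 8 hours of MG132 stress.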 The format is functional.

Data set [8] is described as follows: inhibitors of clade B AD8 Env fusion, dose response, cell-based, cherry-pick (AID 652062).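 Note: luciferase signal from cell-cell fusion driven by HIV-1 clade B AD8 Env; potency is for inhibitors of fusion seen as a drop in luminescence.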 The format is functional.
Data set [9] can be described thus: inhibitors of Vif binding to APOBEC3G peptide, primary screen, biochemical, TR-FRET, GST-Vif 1-94, biotin-A3G peptide, dose response retest (AID 1117319).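 Note: TR-FRET signal of purified GST-Vif binding a biotinylated A3G peptide; inhibitors lower the FRET signal by blocking Vif and A3G binding.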 The format is functional. In general terms: Time-resolved FRET reads energy transfer from a long-lived donor to a nearby acceptor.
Data set [10] has as its target T3, Cytochrome P450 2C19 (Homo sapiens, UniProt P33261). Put plainly: qHTS Assay for Inhibitors and Substrates of Cytochrome P450 2C19. [Related pubchem assays: 410 ]. The following applies: read-out: Potency. Type of data set: ADME.
Data set [11] deals with T4, Zinc finger protein mex-5 (Caenorhabditis elegans, UniProt Q9XUB2).
T4 sequence (Q9XUB2 whole entry): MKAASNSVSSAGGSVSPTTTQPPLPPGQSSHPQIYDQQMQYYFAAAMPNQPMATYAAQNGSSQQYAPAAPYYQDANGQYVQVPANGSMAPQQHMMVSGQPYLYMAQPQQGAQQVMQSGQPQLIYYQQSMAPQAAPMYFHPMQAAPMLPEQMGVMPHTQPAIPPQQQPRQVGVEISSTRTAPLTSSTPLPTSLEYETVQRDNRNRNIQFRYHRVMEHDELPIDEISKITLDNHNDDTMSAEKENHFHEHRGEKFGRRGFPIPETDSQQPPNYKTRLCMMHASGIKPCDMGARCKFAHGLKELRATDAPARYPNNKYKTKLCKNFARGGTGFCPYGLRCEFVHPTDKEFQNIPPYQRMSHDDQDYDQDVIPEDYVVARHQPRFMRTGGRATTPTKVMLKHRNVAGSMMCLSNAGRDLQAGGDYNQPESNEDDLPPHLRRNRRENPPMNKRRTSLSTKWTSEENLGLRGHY
Put plainly: MEX-5/TCR-2 RNA interaction inhibitors, dose response, biochemical, C. elegans, fluorescence polarization (AID 1960).

The next data set has as its target Ephrin type-A receptor 4 (Mus musculus, UniProt Q03137). Put plainly: inhibitors of EphA4 binding to KYL peptide, primary screen, biochemical, colorimetric, mouse EphA4 (AID 689). The format is functional.
The target in data set [12] is T5, RNA-binding protein pos-1 (Caenorhabditis elegans, UniProt G5EF15).
T5 sequence (G5EF15 whole entry): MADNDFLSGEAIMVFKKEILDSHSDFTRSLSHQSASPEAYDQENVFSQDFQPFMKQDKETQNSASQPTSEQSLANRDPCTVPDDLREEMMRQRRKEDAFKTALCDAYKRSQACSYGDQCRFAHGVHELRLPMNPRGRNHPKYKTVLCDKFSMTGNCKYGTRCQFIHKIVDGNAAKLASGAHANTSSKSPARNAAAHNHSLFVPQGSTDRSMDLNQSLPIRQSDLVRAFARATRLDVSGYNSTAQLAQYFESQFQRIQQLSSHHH
Put plainly: inhibitors of POS-1/mex-3 RNA binding, dose response, biochemical, fluorescence polarization (AID 1964).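 Note: purified POS-1 fused to maltose binding protein made in E. coli; potency of compounds blocking POS-1 binding to fluorescent RNA.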 A general note: Polarisation of emitted light reports the rotation of a fluorescent probe.

Another data set has as its system CHO. Put plainly: cytotoxicity in TLR9-MyD88 CHO cells, dose response, cytotoxicity control for TLR9-MyD88 binding inhibitor project, cell-based, luminescence (AID 588339).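 Note: CHO cells stably coexpressing TLR9 and MyD88 fusions from primary screen; compound exposure lasted 48 hours before viability readout.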 The format is functional, hamster. Conditions: Cricetulus griseus.
A further data set has as its target Beta Lactamase (Pseudomonas aeruginosa, UniProt Q932Y6). Put plainly: beta-lactamase reporter inhibitor potency, dose response, artefact control for TLR9-MyD88 binding inhibitor project, BLA reporter cells, FRET fluorescence (AID 588341).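 Note: cell based assay in CHO-K1 cells stably expressing beta-lactamase.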 Type of data set: cell-based.
Data set [13] deals with Aryl hydrocarbon receptor (Homo sapiens, UniProt P35869). Put plainly: Luminescence-based cell-based high throughput dose response assay for activators of the Aryl Hydrocarbon Receptor (AHR). [Related pubchem assays: 2796 (Primary screen (AHR activators in singlicate)), 2845 (Confirmation screen (AHR activators in triplicate)), 434939 (Counterscreen (PXR activators in triplicate)), 2804 (Summary (AHR activators))]. The format is ADME.

The target of data set [14] is T3, Cytochrome P450 2C19. Put plainly: Cytochrome panel assay with activity outcomes. Panel member name: p450-cyp2c19 Compounds with AC50 equal or less than 10 uM are considered active. Conditions: read-out: AC50. The format is functional.
Another data set addresses Cytochrome P450 2C9 (Homo sapiens, UniProt P11712).

The record followed here is ChEMBL document CHEMBL1201862, “PubChem BioAssay data set” (2004).

Active and inactive are the calls of the source.

Broadly, the CC50 is the concentration that lowers cell viability or growth by half. As a reminder, the IC50 is the midpoint of a concentration-inhibition curve. As usually defined, the EC50 is the concentration at which the effect is half-maximal.

T3 sequence (P33261 whole entry): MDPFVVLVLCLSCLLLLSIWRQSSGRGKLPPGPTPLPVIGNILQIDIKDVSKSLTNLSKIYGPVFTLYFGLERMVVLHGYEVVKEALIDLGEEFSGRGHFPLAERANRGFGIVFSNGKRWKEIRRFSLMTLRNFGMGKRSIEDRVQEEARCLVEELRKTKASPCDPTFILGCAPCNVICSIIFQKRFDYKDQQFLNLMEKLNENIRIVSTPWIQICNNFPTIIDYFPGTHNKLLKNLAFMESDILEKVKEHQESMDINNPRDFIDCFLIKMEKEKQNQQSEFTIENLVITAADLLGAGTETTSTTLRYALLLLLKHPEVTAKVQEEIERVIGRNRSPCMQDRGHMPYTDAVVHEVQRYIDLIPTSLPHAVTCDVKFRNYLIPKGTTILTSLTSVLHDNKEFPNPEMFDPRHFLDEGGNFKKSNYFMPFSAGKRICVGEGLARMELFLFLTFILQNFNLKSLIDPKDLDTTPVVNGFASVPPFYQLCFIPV
Aryl hydrocarbon receptor, sequence (P35869 whole entry): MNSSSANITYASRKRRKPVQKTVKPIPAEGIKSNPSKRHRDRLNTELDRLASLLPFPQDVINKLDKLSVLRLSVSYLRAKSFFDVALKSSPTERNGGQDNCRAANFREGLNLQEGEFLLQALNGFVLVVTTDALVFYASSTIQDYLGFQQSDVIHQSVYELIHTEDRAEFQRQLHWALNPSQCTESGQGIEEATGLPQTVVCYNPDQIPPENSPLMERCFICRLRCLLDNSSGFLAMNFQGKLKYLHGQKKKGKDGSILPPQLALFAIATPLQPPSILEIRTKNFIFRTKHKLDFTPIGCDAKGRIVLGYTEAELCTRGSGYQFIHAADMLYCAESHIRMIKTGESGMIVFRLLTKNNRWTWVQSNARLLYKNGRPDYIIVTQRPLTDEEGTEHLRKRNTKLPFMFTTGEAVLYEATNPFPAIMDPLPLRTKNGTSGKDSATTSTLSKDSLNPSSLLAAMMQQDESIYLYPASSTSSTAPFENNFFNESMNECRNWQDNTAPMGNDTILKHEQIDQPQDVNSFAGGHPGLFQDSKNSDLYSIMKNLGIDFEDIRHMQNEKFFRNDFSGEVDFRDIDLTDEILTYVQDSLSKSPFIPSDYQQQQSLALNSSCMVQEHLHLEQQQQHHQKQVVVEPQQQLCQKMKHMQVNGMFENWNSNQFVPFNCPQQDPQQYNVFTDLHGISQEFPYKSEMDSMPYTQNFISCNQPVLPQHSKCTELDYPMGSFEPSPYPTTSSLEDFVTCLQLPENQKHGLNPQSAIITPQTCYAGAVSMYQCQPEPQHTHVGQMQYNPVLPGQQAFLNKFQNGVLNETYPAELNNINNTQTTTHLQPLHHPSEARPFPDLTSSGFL
Ephrin type-A receptor 4, sequence (Q03137 whole entry): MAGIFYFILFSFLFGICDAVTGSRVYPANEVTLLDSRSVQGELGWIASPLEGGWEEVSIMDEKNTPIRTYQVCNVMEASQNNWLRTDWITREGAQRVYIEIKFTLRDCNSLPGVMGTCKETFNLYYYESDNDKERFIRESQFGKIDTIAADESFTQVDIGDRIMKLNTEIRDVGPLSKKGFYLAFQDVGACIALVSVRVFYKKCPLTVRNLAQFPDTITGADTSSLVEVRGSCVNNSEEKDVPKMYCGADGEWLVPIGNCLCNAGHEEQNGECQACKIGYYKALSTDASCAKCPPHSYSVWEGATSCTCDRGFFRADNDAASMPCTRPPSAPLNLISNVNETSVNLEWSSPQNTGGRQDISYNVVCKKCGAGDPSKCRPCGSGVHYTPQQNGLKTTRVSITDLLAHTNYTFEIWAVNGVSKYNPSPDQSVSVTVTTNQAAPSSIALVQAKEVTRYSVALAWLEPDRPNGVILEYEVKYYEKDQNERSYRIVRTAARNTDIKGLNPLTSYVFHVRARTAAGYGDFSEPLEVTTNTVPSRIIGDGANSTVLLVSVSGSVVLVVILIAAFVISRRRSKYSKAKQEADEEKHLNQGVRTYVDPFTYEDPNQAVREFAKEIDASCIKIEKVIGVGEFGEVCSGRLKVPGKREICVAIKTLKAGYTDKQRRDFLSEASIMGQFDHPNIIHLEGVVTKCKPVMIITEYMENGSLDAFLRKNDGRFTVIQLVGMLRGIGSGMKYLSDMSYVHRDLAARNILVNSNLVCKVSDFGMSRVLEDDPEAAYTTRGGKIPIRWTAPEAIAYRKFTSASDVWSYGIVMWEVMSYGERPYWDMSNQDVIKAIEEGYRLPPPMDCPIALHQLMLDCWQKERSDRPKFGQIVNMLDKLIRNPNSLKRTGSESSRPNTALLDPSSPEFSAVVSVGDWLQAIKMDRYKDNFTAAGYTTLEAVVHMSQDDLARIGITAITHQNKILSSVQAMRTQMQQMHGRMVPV
Beta Lactamase, sequence (Q932Y6 whole entry): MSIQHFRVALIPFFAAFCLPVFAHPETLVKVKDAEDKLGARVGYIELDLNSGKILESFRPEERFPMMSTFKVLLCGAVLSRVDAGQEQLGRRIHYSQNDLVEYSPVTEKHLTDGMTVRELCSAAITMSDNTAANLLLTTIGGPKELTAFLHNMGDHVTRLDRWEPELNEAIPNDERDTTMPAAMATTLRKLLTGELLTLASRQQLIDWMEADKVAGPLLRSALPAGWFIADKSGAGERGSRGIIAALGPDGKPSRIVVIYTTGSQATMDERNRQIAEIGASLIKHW
Cytochrome P450 2C9, sequence (P11712 whole entry): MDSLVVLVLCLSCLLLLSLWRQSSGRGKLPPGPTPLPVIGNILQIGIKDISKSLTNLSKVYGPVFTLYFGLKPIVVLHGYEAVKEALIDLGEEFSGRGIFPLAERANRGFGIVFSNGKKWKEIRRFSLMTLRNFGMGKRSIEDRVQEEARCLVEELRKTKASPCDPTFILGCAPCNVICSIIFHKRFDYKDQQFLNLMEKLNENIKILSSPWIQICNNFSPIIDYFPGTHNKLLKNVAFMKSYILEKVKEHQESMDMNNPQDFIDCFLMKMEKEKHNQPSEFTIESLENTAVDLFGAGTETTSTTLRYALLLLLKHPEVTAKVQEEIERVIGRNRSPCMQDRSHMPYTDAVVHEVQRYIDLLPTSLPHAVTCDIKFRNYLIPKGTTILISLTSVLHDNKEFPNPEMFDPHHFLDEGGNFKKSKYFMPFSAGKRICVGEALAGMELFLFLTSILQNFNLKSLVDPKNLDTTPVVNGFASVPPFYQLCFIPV
Protein Tat, sequence (P04608 whole entry): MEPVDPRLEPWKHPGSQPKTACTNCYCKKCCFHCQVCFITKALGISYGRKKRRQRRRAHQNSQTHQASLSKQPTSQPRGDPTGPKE

`CN(c1ccc2nc3ccccc3c(=O)n2n1)C1CCCCC1`: the AC50 is 6.41 µM (active) in data set [1]; 26.9 µM (active) in data set [3]; 31.1 µM (active) in data set [4]; 2.13 µM (active) in data set [5]; 1.29 µM (active) in [6]; 6.5 µM (active) in data set [8]. Further, the cytotoxic concentration (CC50) in [2] is 36.6 µM (active). For the same compound, the IC50 at Protein Tat was > 100 µM (active). Further, the EC50 in data set [7] was < 0.16 µM (active).

In the case of `Cc1cc(C)cc(NC2=CC(=O)CC(c3ccco3)C2)c1` (centres undefined), the CC50 in data set [2] is 25.1 µM (active). Moreover, the IC50 in data set [9] was > 60.7 µM (active).

Consider `COc1cc2c(cc1OC)-c1c(O)c(OC)cc3c1[C@@H](C2)N(C)CC3`, for which the AC50 at Cytochrome P450 2C19 [10] is 25.1 µM (inconclusive).

On to `COc1cc(C(=O)Nc2cccc(-c3nc4ncccc4o3)c2C)cc(OC)c1OC`, for which the IC50 in data set [9] was > 100 µM (active).

In the case of `CN(C)c1ccc(/C=C/C(=O)c2cccc(Br)c2)cc1`, the values for the EC50 in data set [11] and in data set [12] were > 300 µM (inconclusive) and > 300 µM (not active), respectively. The IC50 on Ephrin type-A receptor 4 is > 100 µM (not active); in the data set with CHO, > 49.7 µM (inactive); at Beta Lactamase it was 5.6 µM (active).

`O=S(=O)(NNc1ncc(C(F)(F)F)cc1Cl)c1ccc(F)cc1F`: the EC50 in data set [13] is 3.38 µM (active).

In the case of `Cc1ccc(CNC(=O)CN2CCC(C(N)=O)CC2)cc1`, the IC50 at Ephrin type-A receptor 4 was > 100 µM (not active).

For the compound `Cc1c(-c2cc[nH]n2)cc(NC(=O)c2ccc(Cl)cc2)c(=O)n1N`, the EC50 in data set [13] was 1.17 µM (active).

With `O=C(C1CCCCC1)N1CC(=O)N2CCc3ccccc3[C@@H]2C1` [PRAZIQUANTEL, (R)-], the AC50 is 5.01 µM (inconclusive) on Cytochrome P450 2C19 [14], “inconclusive” on Cytochrome P450 2C9 and 25.1 µM (inconclusive) on Cytochrome P450 2C19 [10].
